Reference: paper PMC10637841, “Evaluation of Antioxidant and Anti-Inflammatory Activities, and Metabolite Profiling of Selected Medicinal Plants of Nepal” (Journal of Tropical Medicine, 2023)
Values after ≈ are worked out from the molar mass of the structure shown. Where two headings read alike, the source gives them in different places. Each block holds one compound with its values, some of them ahead of it.

How the values were obtained:
[1] = tested on: human red blood cells (HRBC) membrane; experiment: HRBC membrane stabilization (heat-induced hemolysis); type: cell-based; details: Erythrocyte, read-out: HRBC membrane stabilization IC50
Method: (1) Erythrocyte Suspension. With few modifications, the erythrocyte suspension was prepared using the technique outlined by Pieroni et al.. Healthy human volunteers provided the blood sample, which was centrifuged for 10 minutes at 1500 rpm. The red blood cell (RBC) pallet was washed three times with PBS (pH 7.4) following centrifugation. The buffy coat and supernatant liquid were aspirated out following each wash. The RBCs were resuspended in PBS at a concentration of 20% (v/v). (2) Heat-Induced Hemolysis. The method explained by Gunathilake et al. was used to determine the heat-induced hemolysis with some modifications. […] Then, the mixture was incubated for 20 minutes at 54°C in the water bath with continuous shaking. The mixture was incubated and centrifuged at 2500 rpm for 3 minutes. By using a UV spectrophotometer, the absorbance of supernatant was measured at 540 nm. In the experiment, PBS will be used as blank.

[2] = Ferric (Fe3+) ion reducing power; type: biochemical; details: ethanolic leaf extract 100-2000 μg/mL; mean ± SEM
Method: (§1) The antioxidant activity of twelve plant extracts was estimated by using various methods, including (2, 2-diphenyl-1-picrylhidrazyl) DPPH free radical scavenging activity, ferrous (Fe^2+) ion chelating agent, ferric (Fe^3+) ion reducing power, nitric oxide (NO^−) scavenging activity, hydroxyl radical scavenging activity, hydrogen peroxide scavenging activity, and total antioxidant activity.
The ferric ion-reducing antioxidant power assay of twelve plant extracts was carried out. The activity was confirmed when the color of the solution was changed from yellow to green and Prussian blue based on the reduction property of extracts and standard, which was measured at 700 nm wavelength using a UV spectrophotometer. The absorbance value was increased with the increasing concentration of plant extract (Table 4).

[3] = Nitric oxide (NO) scavenging activity; type: biochemical; details: ethanolic leaf extract 100-2000 μg/mL; mean ± SEM
From the text: as §1

[4] = tested on: rats; design: method as in PMID 32061742; details: rats, 25, 50, and 100 mg/kg; ref [7]; cited from earlier work
[5] = Hydroxyl radical scavenging activity; type: biochemical; details: ethanolic leaf extract 100-2000 μg/mL; mean ± SEM
From the text: as §1

[6] = Ferrous (Fe2+) ion chelating activity; type: biochemical; details: ethanolic leaf extract 100-2000 μg/mL; mean ± SEM
From the text: as §1

[7] = DPPH free radical scavenging activity; type: biochemical; details: ethanolic leaf extract 100-2000 μg/mL; mean ± SEM
From the text: as §1

[8] = Hydrogen peroxide scavenging activity; type: biochemical; details: ethanolic leaf extract 100-2000 μg/mL; mean ± SEM
From the text: as §1

[9] = Total antioxidant activity (phosphomolybdenum); type: biochemical; details: ethanolic leaf extract 100-2000 μg/mL; mean ± SEM
From the text: as §1

[10] = ethanolic leaf extract 100-2000 μg/mL

SMILES: O=C(O)COC(=O)Cc1ccccc1Nc1c(Cl)cccc1Cl [Aceclofenac, aceclofenac]
IC50 [1, 10]: 21.9 ± 2.34 µg/mL (≈ 61.8 µM)

SMILES: CC(=O)Oc1ccccc1C(=O)O [Aspirin, aspirin]
IC50 [1, 10]: 21.3 ± 0.43 µg/mL (≈ 118 µM)

SMILES: COc1ccc(O)c(C(C)(C)C)c1 [BHA, Butylated Hydroxyl Annisole]
Ferric reducing IC50 [2]: 3.02 ± 0.30 µg/mL
Nitric oxide scavenging IC50 [3]: 5.58 ± 0.68 µg/mL

SMILES: C=C1CC[C@@H]2[C@](C)(CO)[C@H](O)CC[C@@]2(C)[C@@H]1C/C=C1/C(=O)OC[C@H]1O [andrographolide]
Concentration of catalase, superoxide dismutase, and glutathione (antioxidant enzymes) [4]: increase
Level of articular elastase, TNF-α, IL-6, CXC chemokine ligand 2, and myeloperoxidase [4]: decrease

Hydroxyl radical scavenging IC50 [5]: 4.75 ± 0.43 µg/mL
Ferric reducing IC50 [2]: 2.47 ± 0.40 µg/mL
Ferrous ion chelating IC50 [6]: 3.68 ± 0.59 µg/mL
DPPH scavenging IC50 [7]: 4.54 ± 0.98 µg/mL
H2O2 scavenging IC50 [8]: 3.31 ± 0.58 µg/mL
Total antioxidant activity IC50 [9]: 2.87 ± 0.10 µg/mL
Nitric oxide scavenging IC50 [3]: 3.91 ± 0.80 µg/mL
SMILES: O=C1O[C@H]([C@@H](O)CO)C(O)=C1O [Ascorbic acid]

SMILES: Cc1ccc(-c2ncc(Cl)cc2-c2ccc(S(C)(=O)=O)cc2)cn1 [Etoricoxib, etoricoxib]
IC50 [1, 10]: 11 ± 1.65 µg/mL (≈ 30.6 µM)

Hydroxyl radical scavenging IC50 [5]: 2.90 ± 0.98 µg/mL
Ferrous ion chelating IC50 [6]: 2.81 ± 0.82 µg/mL
DPPH scavenging IC50 [7]: 2.90 ± 0.51 µg/mL
H2O2 scavenging IC50 [8]: 2.89 ± 0.32 µg/mL
SMILES: Cc1cc(C(C)(C)C)c(O)c(C(C)(C)C)c1 [BHT, Butylated Hydroxyl Toulene]

SMILES: COc1ccc2c(c1)c(CC(=O)O)c(C)n2C(=O)c1ccc(Cl)cc1 [Indomethacin, indomethacin]
IC50 [1]: 7.14 ± 0.31 µg/mL (≈ 20 µM)
